Earlier results in patent publication US20190307762A1, “METHODS AND COMPOSITIONS FOR THE TREATMENT OF TRAUMA AND STRESSOR-RELATED DISORDERS” (priority 2016, published 2019).

Tests used:
[1] = for Equivalent amount: dose equivalent to 20 mg hydrocortisone; for Hydrocortisone equivalent (1 mg of the glucocorticoid corresponds to the listed amount in mg of hydrocortisone): per 1 mg of the glucocorticoid
sigma 2 receptors = sigma 2 receptors (Homo sapiens, UniProt Q5BJF2)
[2] = tested on: serotonin (5-HT) or noradrenaline reuptake
[3] = tested on: histamine (H1.H2), serotonin (5-HT2), dopamine (D2.D1), adrenergic (al) receptors; details: in vitro; decreasing order H1.H2, 5-HT2, D2.D1, al
[4] = tested on: generalized anxiety disorders; details: versus placebo and alprazolam
neurological tissue = details: preclinical; linked to binding to sigma one receptors
cytochrome P-450 3A4 = cytochrome P-450 3A4 (Homo sapiens, UniProt P08684)
Sequence of cytochrome P-450 3A4 (P08684 whole entry): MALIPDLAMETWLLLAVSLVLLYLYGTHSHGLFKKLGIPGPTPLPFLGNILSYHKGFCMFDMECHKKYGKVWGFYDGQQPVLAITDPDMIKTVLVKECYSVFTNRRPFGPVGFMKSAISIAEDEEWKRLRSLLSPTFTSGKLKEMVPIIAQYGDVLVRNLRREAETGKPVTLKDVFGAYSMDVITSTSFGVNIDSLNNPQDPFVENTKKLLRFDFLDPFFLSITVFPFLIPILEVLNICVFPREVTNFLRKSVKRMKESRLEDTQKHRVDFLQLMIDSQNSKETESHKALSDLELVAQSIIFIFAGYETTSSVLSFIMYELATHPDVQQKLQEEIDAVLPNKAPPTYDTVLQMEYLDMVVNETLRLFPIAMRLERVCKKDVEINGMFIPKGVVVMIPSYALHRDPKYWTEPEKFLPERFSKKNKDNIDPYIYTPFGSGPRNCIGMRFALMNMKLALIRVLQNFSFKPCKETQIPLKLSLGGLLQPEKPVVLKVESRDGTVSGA

cholinergic receptors = details: in vitro
[5] = in vivo

Sequence of sigma 2 receptors (Q5BJF2 whole entry): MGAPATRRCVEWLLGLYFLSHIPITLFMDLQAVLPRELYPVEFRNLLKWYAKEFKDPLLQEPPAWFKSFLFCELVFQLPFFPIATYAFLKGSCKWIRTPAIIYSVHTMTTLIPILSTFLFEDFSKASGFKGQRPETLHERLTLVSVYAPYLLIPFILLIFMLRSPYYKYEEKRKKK

Row | SMILES | Equivalent amount [1] | Hydrocortisone equivalent (1 mg of the glucocorticoid corresponds to the listed amount in mg of hydrocortisone) [1] | also measured
1 | C[C@@H]1C[C@H]2[C@@H]3C[C@H](F)C4=CC(=O)C=C[C@]4(C)[C@H]3[C@@H](O)C[C@]2(C)[C@@]1(O)C(=O)CO [Pararnethasone] | 2 mg | 10 mg | –
2 | C[C@]12C=CC(=O)C=C1CC[C@@H]1[C@@H]2[C@@H](O)C[C@@]2(C)[C@H]1CC[C@]2(O)C(=O)CO [Prednisolone] | 5 mg | 4 mg | –
3 | C[C@H]1C[C@H]2[C@@H]3CCC4=CC(=O)C=C[C@]4(C)[C@@]3(F)[C@@H](O)C[C@]2(C)[C@@]1(O)C(=O)CO [Betarnethasone] | 0.75 mg | 26.66 mg | –
4 | CC(=O)OCC(=O)[C@@]1(O)CC[C@H]2[C@@H]3CCC4=CC(=O)CC[C@]4(C)[C@H]3C(=O)C[C@@]21C [Cortisone acetate] | 25 mg | 0.8 mg | –
5 | C[C@]12C=CC(=O)C=C1CC[C@H]1[C@@H]3C[C@@H](O)[C@](O)(C(=O)CO)[C@@]3(C)C[C@H](O)[C@@]12F [Triamcinolone] | 4 mg | 5 mg | –
6 | OCCN1CCN(CCCN2c3ccccc3C=Cc3ccccc32)CC1 [opipramol] | – | – | signaling at sigma 2 receptors (sigma 2 receptors): down regulate signaling at sigma 2 receptors; reuptake inhibiting properties [2]: without reuptake inhibiting properties; receptor blockade [3]: blocks the following receptors in decreasing order; anxiolytic efficacy [4]: superiority over placebo and similar efficacy to alprazolam; protection against glutamate mediated toxicity (neurological tissue): ability to protect neurological tissue against the effects of glutamate mediated toxicity; CYP substrate (cytochrome P-450 3A4): CYP3A substrate; sigma ligand strength (sigma): strong sigma ligand; receptor blockade (cholinergic receptors): very weakly; levels of cGMP (cGMP): induces increased levels of cGMP; risk of drug dependence [5]: no risk of drug dependence
7 | C[C@]12CCC(=O)C=C1CC[C@@H]1[C@@H]2[C@@H](O)C[C@@]2(C)[C@H]1CC[C@]2(O)C(=O)CO [Hydrocortisone] | 20 mg | 1 mg | –
